Structures can show the parent of a compound that is named as a salt. Where two headings read alike, the source gives them in different places.

Data set [1] has as its target T1, human H1 receptor (Homo sapiens, UniProt P35367).
T1 construct: expressed in transfected cells
As to the kind of experiment: Histamine H1 functional antagonist assay (FLIPR): determination of antagonist pA2. It counts as cell-based. On the procedure:
(§1) The human H1 receptor is cloned using known procedures described in the literature [Biochem. Biophys. Res. Commun., 201(2):894 (1994)]. Chinese hamster ovary (CHO) cells stably expressing the human H1 receptor are generated according to known procedures described in the literature [Br. J. Pharmacol., 117(6):1071 (1996)].
(§2) Histamine H1 functional antagonist assay: Determination of antagonist pA2 and duration
The histamine H1 receptor expressing CHO cells are seeded into non-coated black-walled clear bottom 96-well tissue culture plates as described above. Following overnight culture, growth medium is removed from each well, washed with 200 μl phosphate buffered saline (PBS) and is replaced with 50 μl loading dye (250 μM Brilliant Black, 1 μM Fluo-4 diluted in Tyrodes buffer+probenecid (145 mM NaCl, 2.5 mM KCl, 10 mM HEPES, 10 mM D-glucose, 1.2 mM MgCl2, 1.5 mM CaCl2, 2.5 mM probenecid, pH adjusted to 7.40 with NaOH 1.0 M)). Cells are incubated for 45 min at 37° C. The loading buffer is removed and the cells are washed as above, and 90 μl of Tyrodes buffer+probenecid is added to each well. 10 μl of test compound, diluted to the required concentration in Tyrodes buffer+probenecid (or 10 μl Tyrodes buffer+probenecid as a control) is added to each well and the plate is incubated for 30 min at 37° C., 5% CO2. The plates are then placed into a FLIPR™ (Molecular Devices, UK) to monitor cell fluorescence (λex=488 nm, λEM=540 nm) in the manner described in Sullivan et al., (In: Lambert DG (ed.), Calcium Signaling Protocols, New Jersey: Humana Press, 1999, 125-136) before and after the addition of 50 μl histamine over a concentration range of 1 mM-0.1 nM. The resultant concentration response curves are analysed by non-linear regression using a standard four parameter logistic equation to determine the histamine EC50, the concentration of histamine required to produce a response of 50% of the maximum response to histamine. The antagonist pA2 is calculated using the following standard equation: pA2=log(DR-1)- log[B] where DR=dose ratio, defined as EC50antagonist-treated/EC50control and [B]=concentration of antagonist.

In data set [2] the target is T1, human H1 receptor. As to the kind of experiment: Histamine H1 functional antagonist assay: antagonist duration after washout. To be noted: at one or more time points. It counts as cell-based. On the procedure: as §1, §2
To determine the antagonist duration, cells are cultured overnight in non-coated black-walled clear bottom 96-well tissue culture plates, are washed with PBS and are incubated with a concentration of antagonist chosen to give an approximate DR in the range 30-300. Following the 30 min antagonist incubation period, the cells are washed two or three times with 200 μl of PBS and then 100 μl Tyrodes buffer is added to each well to initiate antagonist dissociation. Following incubation for predetermined times, typically 30-270 min at 37° C., the cells are then washed again with 200 μl PBS and are incubated with 100 μl Tyrodes buffer containing Brilliant Black, probenecid and Fluo-4 for 45 min at 37° C., as described above. After this period, the cells are challenged with histamine in the FLIPR™ as described above. The dose ratio at each time point is used to determine the fractional H1 receptor occupancy by the following equation: fractional receptor occupancy=(DR-1)/DR. The decrease in receptor occupancy over time approximates to a straight line and is analysed by linear regression. The slope of this straight line fit is used as an index of the dissociation rate of the antagonist. The dose ratios for antagonist treated cells and for antagonist treated and washed cells at each time point are used to calculate a relative dose ratio (rel DR) which is also used as an index of antagonist duration. Antagonists with long duration of action produce rel DR values close to 1, and antagonists with short duration of action produce rel DR values that approaches the dose ratio value obtained for antagonist treatment alone.

The nature of data set [3]: CNS penetration (intravenous bolus or infusion at steady state, blood and brain levels). The class given is in vivo, rat. Conditions: male CD Sprague Dawley rats. On the procedure:
(i) CNS penetration by bolus administration
Compounds are dosed intravenously at a nominal dose level of 1 mg/kg to male CD Sprague Dawley rats. Compounds are formulated in 5% DMSO/45% PEG200/50% water. Blood samples are taken under terminal anaesthesia with isoflurane at 5 min post-dose and the brains are also removed for assessment of brain penetration. Blood samples are taken directly into heparinised tubes. Blood samples are prepared for analysis using protein precipitation and brain samples are prepared using extraction of drug from brain by homogenisation and subsequent protein precipitation. The concentration of parent drug in blood and brain extracts is determined by quantitative LC-MS/MS analysis using compound-specific mass transitions.
(ii) CNS penetration following intravenous infusion at steady state
A loading dose of the compounds is given to male CD Sprague Dawley rats at a nominal dose level of 0.4 mg/kg. The compounds are then infused intravenously for 4 h at a nominal dose level of 0.1 mg/kg/h. Compounds are formulated in 2% DMSO/30% PEG200/68% water. Serial or terminal blood samples are taken at 0.5, 1.5, 2.5, 3, 3.5 and 4 h post dose. The final blood sample is collected under terminal anaesthesia with isoflurane and the brains are also removed for assessment of brain penetration. Blood samples are taken directly into heparinised tubes. Blood samples are prepared for analysis using protein precipitation and brain samples are prepared using extraction of drug from brain by homogenisation and subsequent protein precipitation. The concentration of parent drug in blood and brain extracts is determined by quantitative LC-MS/MS analysis using compound-specific mass transitions.

The target in data set [4] is T1, human H1 receptor. Description: Histamine H1 functional antagonist assay (FLIPR): determination of functional pKi values. The class given is cell-based. To be noted: CHO cells expressing human H1, histamine at EC80; read-out: average pKi (pKb) at H1 (converted).
Text: H1 receptor cell line generation and FLIPR assay protocol
1. Generation of histamine H1 cell line
as §1
Histamine H1 functional antagonist assay: Determination of functional pKi values […]
10 μl of test compound, diluted to the required concentration in Tyrodes buffer+probenecid (or 10 μl Tyrodes buffer+probenecid as a control) is added to each well and the plate is incubated for 30 min at 37° C., 5% CO2. The plates are then placed into a FLIPR™ (Molecular Devices, UK) to monitor cell fluorescence (λex=488 nm, αEM=540 nm) in the manner described in Sullivan et al., (In: Lambert DG (ed.), Calcium Signaling Protocols, New Jersey: Humana Press, 1999, 125-136) before and after the addition of 10 μl histamine at a concentration that results in the final assay concentration of histamine being EC80.
Functional antagonism is indicated by a suppression of histamine induced increase in fluorescence, as measured by the FLIPR™ system (Molecular Devices). By means of concentration effect curves, functional affinities are determined using standard pharmacological mathematical analysis.

The mark [5] stands for this setting: CHO cells expressing human H1, histamine concentration response curves, read-out: average pA2 values at H1 (converted).

T1 sequence (P35367 whole entry): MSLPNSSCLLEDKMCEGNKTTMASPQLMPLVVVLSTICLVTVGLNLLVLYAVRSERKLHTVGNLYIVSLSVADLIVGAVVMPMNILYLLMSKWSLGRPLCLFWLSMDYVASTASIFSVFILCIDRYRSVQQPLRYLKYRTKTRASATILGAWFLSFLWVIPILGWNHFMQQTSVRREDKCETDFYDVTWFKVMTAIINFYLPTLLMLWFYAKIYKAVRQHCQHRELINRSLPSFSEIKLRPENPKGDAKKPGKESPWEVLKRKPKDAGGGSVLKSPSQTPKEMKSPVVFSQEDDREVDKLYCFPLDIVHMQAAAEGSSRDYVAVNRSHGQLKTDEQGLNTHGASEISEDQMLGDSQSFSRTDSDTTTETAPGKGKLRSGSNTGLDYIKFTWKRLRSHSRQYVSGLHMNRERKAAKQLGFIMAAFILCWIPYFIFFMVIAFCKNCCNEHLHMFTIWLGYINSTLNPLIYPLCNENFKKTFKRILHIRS

With `CN(CCCCc1ccc(OCCCN2CCCCCC2)cc1)CCn1nc(Cc2ccc(Cl)cc2)c2ccccc2c1=O` [Example 3, 4-[(4-Chlorophenyl)methyl]-2-{2-[[4-(4-{[3-(hexahydro-1H-azepin-1-yl)propyl]oxy}phenyl)butyl](methyl)amino]ethyl}-1(2H)-phthalazinone], on human H1 receptor [1] (setting [5]), the Kb was below 10 nM.
With `O=c1c2ccccc2c(Cc2ccc(Cl)cc2)nn1C[C@H]1CCCN1CCCCCc1ccc(OCCCN2CCCCCC2)cc1` [Example 6, 4-[(4-Chlorophenyl)methyl]-2-({(2R)-1-[5-(4-{[3-(hexahydro-1H-azepin-1-yl)propyl]oxy}phenyl)pentyl]-2-pyrrolidinyl}methyl)-1(2H)-phthalazinone], the Kb on human H1 receptor [1] (setting [5]) is below 1 nM.
On to `COc1ccc(Cc2nn(C[C@H]3CCCN3CCCCc3ccc(OCCCN4CCCCCC4)cc3)c(=O)c3ccccc23)cc1` [Example 7, 2-({(2R)-1-[4-(4-{[3-(Hexahydro-1H-azepin-1-yl)propyl]oxy}phenyl)butyl]-2-pyrrolidinyl}methyl)-4-{[4-(methyloxy)phenyl]methyl}-1(2H)-phthalazinone diformate], for which, on human H1 receptor [2], the “duration of action compared with azelastine in the histamine H1 functional antagonist assay” value is listed as “longer duration of action than azelastine”. Moreover, in data set [3], the “CNS penetration compared with azelastine” value is “lower CNS penetration than azelastine”. The same compound returned a Kb at human H1 receptor [1] below 1 nM. The Ki at human H1 receptor [4] is below 10 nM.
With `O=c1c2ccccc2c(Cc2ccc(O)cc2)nn1C[C@H]1CCCN1CCCCc1ccc(OCCCN2CCCCCC2)cc1` [Example 8, 2-({(2R)-1-[4-(4-{[3-(Hexahydro-1H-azepin-1-yl)propyl]oxy}phenyl)butyl]-2-pyrrolidinyl}methyl)-4-[(4-hydroxyphenyl)methyl]-1(2H)-phthalazinone], at human H1 receptor [2], the “duration of action compared with azelastine in the histamine H1 functional antagonist assay” value is “longer duration of action than azelastine”. Besides, at human H1 receptor [1] (setting [5]), the Kb was below 10 nM.
In the same order, the values of `O=c1c2ccccc2c(Cc2ccc(F)cc2)nn1C[C@H]1CCCN1CCCCc1ccc(OCCCN2CCCCCC2)cc1` [Example 9, 4-[(4-Fluorophenyl)methyl]-2-({(2R)-1-[4-(4-{[3-(hexahydro-1H-azepin-1-yl)propyl]oxy}phenyl)butyl]-2-pyrrolidinyl}methyl)-1(2H)-phthalazinone] are “longer duration of action than azelastine” and below 1 nM.
Turning to `O=c1c2ccccc2c(Cc2ccc(Cl)cc2)nn1C1CCCN(CCc2ccc(OCCCN3CCCCCC3)cc2)CC1` (stereo not shown) [Example 11, 4-[(4-Chlorophenyl)methyl]-2-{1-[2-(4-{[3-(hexahydro-1H-azepin-1-yl)propyl]oxy}phenyl)ethyl]hexahydro-1H-azepin-4-yl}-1(2H)-phthalazinone], the Kb at human H1 receptor [1] (setting [5]) is below 10 nM.
The same measure, in the same setting: the same measure for `O=c1c2ccccc2c(Cc2ccc(Cl)cc2)nn1C1CCCN(CCCc2ccc(OCCCN3CCCCCC3)cc2)CC1` (stereo not shown) [Example 12, 4-[(4-Chlorophenyl)methyl]-2-{1-[3-(4-{[3-(hexahydro-1H-azepin-1-yl)propyl]oxy}phenyl)propyl]hexahydro-1H-azepin-4-yl}-1(2H)-phthalazinone]: below 10 nM.
Take `O=c1c2ccccc2c(Cc2ccc(Cl)cc2)nn1C[C@H]1CCCN1CCCOc1ccc2c(c1)CCN(C1CCC1)CC2` [Example 15, 4-[(4-Chlorophenyl)methyl]-2-[((2R)-1-{3-[(3-cyclobutyl-2,3,4,5-tetrahydro-1H-3-benzazepin-7-yl)oxy]propyl}-2-pyrrolidinyl)methyl]-1(2H)-phthalazinone]: the “duration of action compared with azelastine in the histamine H1 functional antagonist assay” value on human H1 receptor [2] is “longer duration of action than azelastine”. Further, the Kb at human H1 receptor [1] (setting [5]) is below 10 nM.
Turning to `O=c1c2ccccc2c(Cc2ccc(Cl)cc2)nn1C1CCCN(CCCOc2ccc3c(c2)CCN(C2CCC2)CC3)CC1` (stereo not shown) [Example 16, 4-[(4-Chlorophenyl)methyl]-2-(1-{3-[(3-cyclobutyl-2,3,4,5-tetrahydro-1H-3-benzazepin-7-yl)oxy]propyl}hexahydro-1H-azepin-4-yl)-1(2H)-phthalazinone formate salt], the “CNS penetration compared with azelastine” value in data set [3] was “comparable CNS penetration to azelastine”.
`O=C(NCCN1CCCC(n2nc(Cc3ccc(Cl)cc3)c3ccccc3c2=O)CC1)c1ccc2c(c1)CCN(C1CCC1)CC2` (stereo not shown) [Example 18, N-(2-{4-[4-[(4-Chlorophenyl)methyl]-1-oxo-2(1H)-phthalazinyl]hexahydro-1H-azepin-1-yl}ethyl)-3-cyclobutyl-2,3,4,5-tetrahydro-1H-3-benzazepine-7-carboxamide diformate salt]: the “duration of action compared with azelastine in the histamine H1 functional antagonist assay” value at human H1 receptor [2] was “longer duration of action than azelastine”. Besides, the Kb at human H1 receptor [1] is below 10 nM.
In the same order, the values of `O=c1c2ccncc2c(Cc2ccc(Cl)cc2)nn1C[C@H]1CCCN1CCCCc1ccc(OCCCN2CCCCCC2)cc1` [Example 23, 4-[(4-Chlorophenyl)methyl]-2-({(2R)-1-[4-(4-{[3-(hexahydro-1H-azepin-1-yl)propyl]oxy}phenyl)butyl]-2-pyrrolidinyl}methyl)pyrido[3,4-d]pyridazin-1(2H)-one] are “longer duration of action than azelastine” and below 1 nM.

Source of the values: patent US20080039444A1, “COMPOUNDS” (GLAXO GROUP LIMITED, priority 2006, published 2008).
